This note sets out measurements from patent US12440479B2, “Prevention or treatment of chronic organ injury” (GEORG-AUGUST-UNIVERSITAET GOETTINGEN, STIFTUNG …, priority 2018, dated 2025).

Assay [1] has as its system chronically injured livers. Description: CCl4-induced liver fibrosis. The class given is in vivo, mice. As to conditions: 10 mg/kg subcutaneously per day starting one day prior. Here is the method: Eight to twelve weeks-old C57BL/6 mice were intraperitoneally injected with 0.25 (first injection), 0.5 (second injection) and 1 mL/kg body weight CCI4 (25% v/v dissolved in sterile oil) twice a week (63). Mice were sacrificed after 42 days for further analyses. Mice were injected subcutaneously with 10 mg/kg body weight per day GPI-1046 (Santa Cruz Biotechnology, Dallas, USA) in DMSO once daily starting one day prior of surgery, control mice received equivalent volume of vehicle DMSO. For oral administration, GPI-1046 stock solution was diluted in glucose-water (5%) and orally applied on the basis of an average drinking volume of 3 mL and a body weight of 20 g per mouse. Three days after challenging with UUO, mice were treated orally with either vehicle buffer glucose (5%) or 30 mg/kg body weight per day GPI-1046, respectively. […] For morphometric analysis of interstitial fibrosis, fibrotic areas were assessed by using cellSens (Olympus, Tokyo, Japan) software. Ten visual fields were selected randomly for each MTS stained section at 200× magnification and the relative interstitial fibrotic area was evaluated by using a 10 mm2 graticule. Tubular damage was analysed after PAS stain and graded according to a semi-quantitative score of 0 to 3 (0: normal, 1: mild, 2: moderate, 3: severe) at 400× magnification in a total number of 100 tubules per section (158). […]

A further assay deals with ARNT proximal promoter. The assay can be described thus: ChIP PCR after Yy1 pull-down. It is filed as cell-based, mouse. As to conditions: cultured TECs, FK506 added to culture media. As for the experimental part:
DNA and protein interaction was performed with the OneDay ChIP Kit (Diagenode, Seraing, Belgium) according to the manufacturer's instructions. 2×10^7 MCT cells have been used for each ChIP reaction. Cell lysates were sonicated using an ultrasonic processor S-4000 (Misonix, Farmingdale, USA). Immunoprecipitation was performed with a ChIP grade antibody against Yy1 (ab12132, Abcam Biochemicals, Cambridge, UK) and Arnt (3718, Cell Signaling, Danvers, USA). Enriched DNA was analyzed by qRT-PCR with EpiTect ChIP qPCR primers for genomic Arnt (Qiagen, Hilden, Germany), oligonucleotide sequences for genomic Alk3 are listed in Table 10.

For the compound `CCC(C)(C)C(=O)C(=O)N1CCC[C@H]1C(=O)OCCCc1cccnc1` [GPI-1046, 3-(3-pyridyl)-1-propyl-(2S)-1-(3,3-dimethyl-1,2-dioxopentyl)-2-pyrrolidinedine carboxylate], in assay [1], the “ALK3-dependent canonical BMP signaling responses” value is “equally effective” and the protection from fibrogenesis entry is given as “equally effective”. With `C=CC[C@@H]1/C=C(\C)C[C@H](C)C[C@H](OC)[C@H]2O[C@@](O)(C(=O)C(=O)N3CCCC[C@H]3C(=O)O[C@H](/C(C)=C/[C@@H]3CC[C@@H](O)[C@H](OC)C3)[C@H](C)[C@@H](O)CC1=O)[C@H](C)C[C@@H]2OC` [FK506, tacrolimus], the “YY1 binding to the ARNT proximal promoter” value in the assay on ARNT proximal promoter was “reduced”.
